Measurements from patent publication US6232318A, “Pyrimidinedione derivatives useful as alpha 1A adrenoceptor antagonists” (Merck & Co., Ltd., priority 1999, dated 2001).

Assays:
[1] = test system: human alpha 1d and alpha 1b adrenergic receptors; assay: Selective binding assays: alpha 1d and alpha 1b membranes ([125I]-HEAT competition), compared with alpha 1a; conditions: alpha 1a vs alpha 1b and alpha 1d, ratio
Description: Membranes prepared from stably transfected human alpha 1d and alpha 1b cell lines (ATCC CRL 11138 and CRL 11139, respectively) were used to identify compounds that selectively bind to the human alpha 1a adrenergic receptor. These competition binding reactions (total volume=200 μl) contained 50 mM Tris-HCl pH. 7.4, 5 mM EDTA, 150 mM NaCl, 100 pM [^125 I]-HEAT, membranes prepared from cell lines transfected with the respective alpha 1 subtype expression plasmid and increasing amounts of unlabeled ligand. Reactions were incubated at room temperature for one hour with shaking. Reactions were filtered onto Whatman GF/C glass fiber filters with a Inotec 96 well cell harvester. Filters were washed three times with ice cold buffer and bound radioactivity was determined (Ki).

[2] = molecular target: T1, human alpha 1a adrenergic receptor (Homo sapiens, UniProt P35348); assay: Screening assay: alpha 1a adrenergic receptor binding ([125I]-HEAT competition, membranes of stably transfected cell line)
T1 sequence (P35348 1-466): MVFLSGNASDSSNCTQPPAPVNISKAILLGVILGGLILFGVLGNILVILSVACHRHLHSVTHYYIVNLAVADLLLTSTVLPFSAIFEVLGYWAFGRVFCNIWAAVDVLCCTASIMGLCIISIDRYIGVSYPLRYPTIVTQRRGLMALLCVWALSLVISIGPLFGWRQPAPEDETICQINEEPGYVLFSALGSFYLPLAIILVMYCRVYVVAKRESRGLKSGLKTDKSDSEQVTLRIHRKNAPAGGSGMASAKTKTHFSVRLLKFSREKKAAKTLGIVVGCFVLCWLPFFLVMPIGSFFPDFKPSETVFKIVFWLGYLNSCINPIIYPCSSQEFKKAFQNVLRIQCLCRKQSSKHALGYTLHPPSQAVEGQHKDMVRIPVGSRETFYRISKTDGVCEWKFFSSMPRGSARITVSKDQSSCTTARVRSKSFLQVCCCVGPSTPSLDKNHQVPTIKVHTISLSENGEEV
Description: Screening Assay: Alpha 1a Adrenergic Receptor Binding
Membranes prepared from the stably transfected human alpha 1a cell line (ATCC CRL 11140) were used to identify compounds that bind to the human alpha 1a adrenergic receptor. These competition binding reactions (total volume=200 μl) contained 50 mM Tris-HCl pH. 7.4, 5 mM EDTA, 150 mM NaCl, 100 pM [^125 I]-HEAT, membranes prepared from the alpha 1a cell line and increasing amounts of unlabeled ligand. Reactions were incubated at room temperature for one hour with shaking. Reactions were filtered onto Whatman GF/C glass fiber filters with a Inotec 96 well cell harvester. Filters were washed three times with ice cold buffer and bound radioactivity was determined (Ki).

| selectivity in binding to alpha 1a receptors versus binding to alpha 1b and alpha 1d receptors [1] | Ki ([2]; room temperature, 1 h, pH 7.4) | Ki ([2]; value in mM) | Structure (SMILES) |
| --- | --- | --- | --- |
| ≤ 10 fold | 0.000755 mM | – | Cc1c[nH]c(=O)n(CCCN[C@H]2CC[C@@](C#N)(c3ccccc3)CC2)c1=O [Example 21, trans-4-[3-(5-Methyl-2,6-dioxo-3,6-dihydro-2H-pyrimidin-1-yl)propylamino]-1-phenylcyclohexanecarbonitrile] |
| ≤ 10 fold | 0.00079 mM | – | Cc1cn(CCCN[C@H]2CC[C@](C#N)(c3ccccc3C#N)CC2)c(=O)n(Cc2ccccc2)c1=O [Example 26, trans-2-{4-[3-(3-Benzyl-5-methyl-2,4-dioxo-3,4-dihydro-2H-pyrimidin-1-yl)propylamino]-1-cyanocyclohexyl}benzonitrile] |
| ≤ 10 fold | – | – | COc1ccccc1[C@H]1CC[C@H](NCCCn2c(=O)c(C)cn(Cc3ccccc3)c2=O)CC1 [Example 17, trans-1-Benzyl-3-{3-[4-(2-methoxyphenyl)cyclohexylamino]propyl}-5-methyl-1H-pyrimidine-2,4-dione] |
| ≤ 10 fold | – | – | Cc1cn(Cc2ccccc2)c(=O)n(CCCN[C@H]2CC[C@](C#N)(c3ccc(F)cc3F)CC2)c1=O [Example 4, cis-4-[3-(3-Benzyl-5-methyl-2,6-dioxo-3,6-dihydro-2H-pyrimidin-1-yl)propylamino]-1-(2,4-difluorophenyl)cyclohexanecarbonitrile] |
| ≤ 10 fold | – | 0.000115 mM | Cc1cn(Cc2ccccc2)c(=O)n(CCCN[C@H]2CC[C@@](C#N)(c3cc(F)cc(F)c3)CC2)c1=O [Example 9, cis-4-[3-(3-Benzyl-5-methyl-2,6-dioxo-3,6-dihydro-2H-pyrimidin-1-yl)propylamino]-1-(3,5-difluorophenyl)cyclohexanecarbonitrile] |
| ≤ 10 fold | 0.0005 mM | – | Cc1cn(Cc2ccccc2)c(=O)n(CCCN[C@H]2CC[C@@](C#N)(c3ccccc3)CC2)c1=O [Example 6, trans-4-[3-(3-Benzyl-5-methyl-2,6-dioxo-3,6-dihydro-2H-pyrimidin-1-yl)propylamino]-1-phenylcyclohexanecarbonitrile] |
| ≤ 10 fold | – | – | Cc1cn(Cc2ccccc2)c(=O)n(CCCN2CCC(c3ccc(F)cc3)CC2)c1=O [Example 1, 1-Benzyl-3-{3-[4-(4-fluorophenyl)piperidin-1-yl]propyl}-5-methyl-1H-pyrimidine-2,4-dione] |
| ≤ 10 fold | – | – | Cc1c[nH]c(=O)n(CCCN[C@H]2CC[C@](C#N)(c3ccccc3)CC2)c1=O [Example 20, cis4-[3-(5-Methyl-2,6-dioxo-3,6-dihydro-2H-pyrimidin-1-yl)propylamino]-1-phenylcyclohexanecarbonitrile] |

| Structure (SMILES) | selectivity in binding to alpha 1a receptors versus binding to alpha 1b and alpha 1d receptors [1] | Ki ([2]; room temperature, 1 h, pH 7.4) | Ki ([2]; value in mM) |
| --- | --- | --- | --- |
| Cc1ccccc1C1(C#N)CCN(CCCn2c(=O)c(C)cn(Cc3ccccc3)c2=O)CC1 [Example 2, 1-[3-(3-Benzyl-5-methyl-2,6-dioxo-3,6-dihydro-2H-pyrimidin-1-yl)propyl]-4-ortho-tolylpiperidine-4-carbonitrile] | ≤ 10 fold | – | – |
